Publication PMC11148080, “Ru(II)-based complexes containing 2-thiouracil derivatives suppress liver cancer stem cells by targeting NF-κB and Akt/mTOR signaling” (Cell Death Discovery, 2024)
Values joined by “and” are separate entries in the source; they are usually repeats but may differ in a detail not shown here. Equal entries are not always repeated.

Key:
Assay type in all cases: cell-based, human
HepG2 cells [1] = test: CD133 and CD44 expression by flow cytometry; conditions: 24 h
Protocol: To stain the cell surface proteins, the cells were washed with an incubation buffer (0.5% bovine serum albumin in PBS), and then antibodies were added and incubated for 1 h at room temperature. The cells were then washed with PBS, and the fluorescence signal was measured by flow cytometry. CD133 and CD44 were quantified in YO-PRO-1 (Sigma‒Aldrich Co.) negative cells.
For all flow cytometry analyses, cellular fluorescence was measured using a BD LSRFortessa cytometer, BD FACSDiva software (BD Biosciences) and FlowJo software 10 (FlowJo LLC; Ashland, OR, USA). A minimum of 10,000 events were obtained per sample for intracellular staining, and a minimum of 30,000 events per sample were acquired for cell surface protein staining. Doublets were removed using FSC-A vs FCS-H and SCC-A vs SCC-H. Cellular debris was excluded from the analysis.

HepG2 cells [2] = test: PARP (Asp214) cleavage by flow cytometry; conditions: HepG2, 24 h; 8 μM complex 1, 6 μM complex 2
Protocol: To stain intracellular proteins, the cells were harvested and resuspended in 0.5-1 mL of 4% formaldehyde for 10 min at 37 °C. The tube was then placed on ice for 1 min, after which the cells were prechilled and permeabilized using a sequence of 100% (30 min) to 90% (30 min) methanol with gentle mixing. After washing with incubation buffer (0.5% bovine serum albumin in PBS), primary antibodies were added and incubated for 1 h at room temperature. Finally, the cells were washed with PBS, and flow cytometry was used to measure cell fluorescence.

HepG2 cells [3] = test: qPCR array gene expression; parameters: key to RQ MTOR / RQ GSTP1 / RQ TXN / RQ TXNRD1 / RQ CTSS / RQ TOP2B / RQ NFKB1 / RQ HDAC1 / RQ AURKC / RQ NTN3 / RQ HDAC6 / RQ TNKS: RQ by 2^-ΔΔCT, fold vs 0.2% DMSO calibrator (=1); key to RQ BCL2 / RQ BIRC5 / RQ ERBB2 / RQ ERBB3 / RQ IGF1R / RQ CTSD / RQ ESR1 / RQ CDC25A / RQ HIF1A / RQ CDK9 / RQ MDM2 / RQ TP53 / RQ KRAS / RQ HDAC11 / RQ HDAC8: fold change by 2^-ΔΔCT vs 0.2% DMSO calibrator (=1); conditions: 12 h; 8 µM complex 1, 6 µM complex 2
Protocol: Total RNA was extracted using the RNeasy Plus Mini Kit (Qiagen; Hilden, Germany) following the manufacturer’s instructions. A NanoDrop® 1000 spectrophotometer (Thermo Fisher Scientific, Waltham, Massachusetts, USA) was used to quantify and assess the purity of the RNA. Reverse transcription was performed using the Superscript VILOTM enzyme (Invitrogen Corporation; Waltham, MA, USA), and a TaqMan® array human cancer drug target 96-well plate, fast (ID RPRWENH, Applied BiosystemsTM, Foster City, CA, USA) was used for the gene expression study by qPCR (ABI ViiA7, Applied Biosystems instrument). The cycle conditions were 2 min at 50 °C, 10 min at 95 °C, and 40 cycles of 15 s at 95 °C and 1 min at 60 °C. All the experiments were conducted under DNase/RNase-free conditions. The 2^-ΔΔCT method was used to calculate the relative quantification (RQ) of mRNA expression using Gene Expression SuiteTM Software (Applied BiosystemsTM). Cells treated with the negative control (0.2% DMSO) were used as a calibrator, and the RQs of the reference genes GAPDH, UBC and RPLP0 were used to normalize the responses.

HepG2 cells [4] = test: Transwell migration assay; conditions: same concentrations (0.5 μM complex 1, 0.3 μM complex 2), 24 h
Protocol: Transwell plates were used for the cell migration assay, as previously described. The cells were initially incubated in serum-free media for 24 h. We used uncoated cell culture inserts in 6-well plates ([…]; Corning, USA). The upper chamber received 1.5 mL of serum-free medium, whereas the bottom chamber received 2 mL of medium containing 20% FBS. Cotton swabs were used to remove cells that remained in the top chamber after 24 h. The cells on the bottom surface of the membrane were fixed in 4% paraformaldehyde and stained with 0.5% crystal violet. The cells were imaged and counted using an optical microscope (Leica, DMI8).

SMILES: Cc1cc(=O)nc([S][Ru+])[nH]1.F[P-](F)(F)(F)(F)F.c1ccc(-c2ccccn2)nc1.c1ccc(P(c2ccccc2)c2ccccc2)cc1.c1ccc(P(c2ccccc2)c2ccccc2)cc1 [Complex 2, trans-[Ru(6m2TU)(PPh3)2(bipy)]PF6]
- percentage of HepG2 CD44high cells (HepG2 cells [1]; 6 μM complex 2): reduced
- percentage of HepG2 CD133-positive cells (HepG2 cells [1]; 8 μM complex 1 or 6 μM complex 2): reduced
- PARP (Asp214) cleavage (HepG2 cells [2]): increased levels
- RQ ABCC1 (HepG2 cells [3]): 1.941
- RQ AKT1 (HepG2 cells [3]): 1.087
- RQ AKT2 (HepG2 cells [3]): 1.490
- RQ ATF2 (HepG2 cells [3]): 2.672
- RQ AURKA (HepG2 cells [3]): 1.172
- RQ AURKB (HepG2 cells [3]): 1.242
- RQ AURKC (HepG2 cells [3]): 2.011
- RQ BCL2 (HepG2 cells [3]): 1.249
- RQ BIRC5 (HepG2 cells [3]): 1.033
- RQ CDC25A (HepG2 cells [3]): 6.141
- RQ CDK1 (HepG2 cells [3]): 0.752
- RQ CDK2 (HepG2 cells [3]): 1.120
- RQ CDK4 (HepG2 cells [3]): 1.730
- RQ CDK5 (HepG2 cells [3]): 1.104
- RQ CDK7 (HepG2 cells [3]): 2.039
- RQ CDK8 (HepG2 cells [3]): 3.664
- RQ CDK9 (HepG2 cells [3]): 1.146
- RQ CTSB (HepG2 cells [3]): 0.972
- RQ CTSD (HepG2 cells [3]): 1.586
- RQ CTSL (HepG2 cells [3]): 0.950
- RQ CTSS (HepG2 cells [3]): 0.866
- RQ EGFR (HepG2 cells [3]): 1.856
- RQ ERBB2 (HepG2 cells [3]): 1.118
- RQ ERBB3 (HepG2 cells [3]): 1.280
- RQ ESR1 (HepG2 cells [3]): 0.968
- RQ ESR2 (HepG2 cells [3]): 2.732
- RQ GRB2 (HepG2 cells [3]): 2.255
- RQ GSTP1 (HepG2 cells [3]): 0.276 and 0.27
- RQ HDAC1 (HepG2 cells [3]): 16.128
- RQ HDAC2 (HepG2 cells [3]): 2.118
- RQ HDAC3 (HepG2 cells [3]): 3.639
- RQ HDAC4 (HepG2 cells [3]): 0.456
- RQ HDAC6 (HepG2 cells [3]): 1.088
- RQ HDAC7 (HepG2 cells [3]): 2.228
- RQ HDAC8 (HepG2 cells [3]): 1.517
- RQ HDAC11 (HepG2 cells [3]): 3.379
- RQ HIF1A (HepG2 cells [3]): 3.509
- RQ HRAS (HepG2 cells [3]): 0.785
- RQ HSP90AA1 (HepG2 cells [3]): 3.278
- RQ HSP90B1 (HepG2 cells [3]): 2.205
- RQ IGF1R (HepG2 cells [3]): 1.357
- RQ KRAS (HepG2 cells [3]): 1.185
- RQ MDM2 (HepG2 cells [3]): 0.982
- RQ MDM4 (HepG2 cells [3]): 2.736
- RQ MTOR (HepG2 cells [3]): 1.092
- RQ NFKB1 (HepG2 cells [3]): 0.760
- RQ NRAS (HepG2 cells [3]): 0.469
- RQ NTN3 (HepG2 cells [3]): 0.712
- RQ PARP1 (HepG2 cells [3]): 1.065
- RQ PARP4 (HepG2 cells [3]): 2.503
- RQ PDGFRB (HepG2 cells [3]): 1.004
- RQ PGR (HepG2 cells [3]): 30.650
- RQ PIK3C2A (HepG2 cells [3]): 0.839
- RQ PIK3C3 (HepG2 cells [3]): 0.840
- RQ PIK3CA (HepG2 cells [3]): 0.441 and 0.44
- RQ PLK1 (HepG2 cells [3]): 0.509
- RQ PLK2 (HepG2 cells [3]): 5.868
- RQ PLK3 (HepG2 cells [3]): 2.039
- RQ PLK4 (HepG2 cells [3]): 0.844
- RQ PRKCA (HepG2 cells [3]): 1.337
- RQ PRKCB (HepG2 cells [3]): 0.506
- RQ PRKCD (HepG2 cells [3]): 0.340
- RQ PRKCE (HepG2 cells [3]): 1.636
- RQ PTGS2 (HepG2 cells [3]): 15.420
- RQ RHOA (HepG2 cells [3]): 0.628
- RQ RHOB (HepG2 cells [3]): 0.406
- RQ TERT (HepG2 cells [3]): 1.051
- RQ TNKS (HepG2 cells [3]): 2.369
- RQ TOP2A (HepG2 cells [3]): 0.423
- RQ TOP2B (HepG2 cells [3]): 0.235
- RQ TP53 (HepG2 cells [3]): 1.658
- RQ TXN (HepG2 cells [3]): 0.375 and 0.37
- RQ TXNRD1 (HepG2 cells [3]): 0.35
- motility, transwell cell migration (HepG2 cells [4]): reduced motility
